From US4751224A, “Treatment of metastasis” (Brown University Research Foundation, priority 1986, dated 1988)
“Also recorded” adds a separate entry of the source. Where two headings read alike, the source gives them in different places.

Legend:
[1] = system: human platelet aggregation induced by B16-F10 melanoma cells; experiment: B16-F10 melanoma cell-induced human platelet aggregation in vitro (light transmission in platelet-rich plasma); format: cell-based
Procedure: A mouse melanoma subline, B16-F10, (highly metastatic to the lungs) was obtained from EG & G Mason Research Institute, Worcester, MA, and adapted to growth in cell culture. The cultured cells were harvested by 1 min of trypsinization (0.25% trypsin-0.1% EDTA) or with the use of a rubber policeman, washed gently three times with Hank's balanced salts solution (HBBS, free of Ca^++ and Mg^++). […] Freshly drawn whole blood from healthy adult human donors was anticoagulated with heparin (5 units/ml). […] Platelet-rich plasma (PRP) was separated by centrifugation of the whole blood and platelet aggregation was measured in PRP by recording the increase in light transmission after the addition of the tumor cells.
Washed B16-F10 cell suspensions (2×10^7 /ml) were treated with potato apyrase (1 unit/ml) for about 5 min to degrade exogenous adenine nucleotides. Fifty microliters of the cell suspension was then added to the platelet-rich plasma after an incubation of 5 min with (A) 5 microliters DMSO (10% in saline) (Control) or (B) 5 microliters forskolin (200 micro Molars in DMSO 10% in saline). Final concentration of forskolin in PRP (500 microliters) was 2 micromolars.
The in vitro experimental procedure of Example I above was repeated using a combination of forskolin and oxagrelate. In this example the cell suspension was added to platelet-rich plasma incubated with a mixture of forskolin and oxagrelate.

[2] = system: B16-F10 melanoma cells; experiment: pulmonary tumor colonization after tail vein injection of B16-F10 cells; format: in vivo, mouse (C57BL/6)
Procedure: (§1) Washed B16-F10 tumor cells (2 or 3×10^5) in 100 microliters Hanks balanced salts solution were injected from the tail vein 60 min (Exp. 1) or 30 min (Exp. 2, 3) after i.p. injection of 200 microliters DMSO (20 percent in saline) in control group; or forskolin (5 mM) prepared in DMSO (100 percent) and diluted to 1 mM with saline just before injection. The mice were sacrificed after 9 days (Exp. 1) or 14 days (Exp. 2, 3) and the lungs removed for examination. The tumor foci were counted with the help of a dissecting microscope.
The in vivo experimental procedure of Example II above was also repeated using a combination of forskolin and oxagrelate.

[3] = system: mice; experiment: overt toxicity observation in mice after i.p. administration; format: in vivo, mouse (C57BL/6); conditions: 82 micrograms/mouse
Procedure: as §1, with “microscope. […] FIG. 2 presents typical specimens of lungs from untreated and forskolin-treated mice of experiments 2 and 3.” for “microscope.”

[4] = system: B16 amelanotic melanoma cells; experiment: PGI2 reduction of pulmonary tumor colonization by tail vein injected B16 amelanotic melanoma cells (Honn et al.); format: in vivo, mouse; conditions: PGI2 (Honn) compared with forskolin (applicant)
Excerpt: Since tumor cell-platelet interactions play a role in tumor metastasis, several laboratories have examined anticoagulants and anti-aggregating agents, such as heparin, warfarin (Hagmar and Norrby, Vol. 5 Int. J. Cancer, pp. 72-84, [1970]; Lione and Bosmann, Vol. 2 Cell Biol. Int. Res., pp. 81-86 [1972]; Hoover and Ketcham, Vol. 35 Cancer, pp. 5-14 [1975]); aspirin (Gasic et al., Lancet II, pp. 932-933 [1972]; Wood and Hilgard, Lancet II, pp. 1416-1416 [1972]; Hilgard et al., Vol. 86 Z. Krebsforsch., pp. 243-250 [1976]) and dipyridamole (Hilgard in Interaction of Platelets and Tumor Cells, pp. 143-158, Jameson [ed.] [1982]; Ambrus et al. in Platelets: A Multidisciplinary Approach, pp. 467-48, de Gaetano [ed.] [1982]) to reduce the incidence of tumor metastasis without treating the tumor per se in experimental animal models. However, the results of many of these studies were inconclusive.

[5] = system: membrane adenylate cyclase; conditions: human platelets, via stimulation of membrane adenylate cyclase; cited from earlier work
[6] = system: platelet aggregation; conditions: induced by a wide variety of aggregation stimulators; cited from earlier work
[7] = system: mice; conditions: cited from earlier work
[8] = system: platelet aggregation; experiment: inhibition of platelet aggregation in vitro; format: cell-based, human; conditions: molar basis, PGI2 compared to forskolin
[9] = system: B16 amelanotic melanoma cells; conditions: cited from earlier work

C=C[C@@]1(C)CC(=O)[C@]2(O)[C@@]3(C)[C@@H](O)CCC(C)(C)[C@@H]3[C@H](O)[C@H](OC(C)=O)[C@@]2(C)O1 [forskolin, 7 beta-acetoxy-8,13-epoxy-1 alpha,6 beta,9 alpha trihydroxy-labd-14-en-11-one]
inhibition at 0.4 µM ([1]; Homo sapiens, B16-F10, forskolin 0.4 micromolar alone, read-out: inhibition of tumor cell-induced platelet aggregation): 20%
melanoma cell-induced human platelet aggregation, inhibition ([1]; forskolin 2 micromolar, 5 min preincubation of PRP, B16-F10 2×10^6/ml): strongly inhibits; also recorded: strongly blocked
in vitro inhibitory effect in combination with 2-fluoroadenosine ([1]; forskolin combined with 2-fluoroadenosine (F-Ado)): potentiated
in vitro inhibitory effect in combination with prostaglandin E ([1]; forskolin combined with prostaglandin E): potentiated
Median number of pulmonary tumor foci ([2]; Experiment 1, 2×10^5 cells/mouse, i.p. 60 min before, 9 days, control median 189): 3.1
Median number of pulmonary tumor foci ([2]; Experiment 2, 3×10^5 cells/mouse, i.p. 30 min before, 14 days, control median 210): 1
Median number of pulmonary tumor foci ([2]; Experiment 3, 3×10^5 cells/mouse, i.p. 30 min before, 14 days, control median >600 (estimated)): 149.5
No. of pulmonary tumor foci (per mouse) ([2]; Experiment 3, 3×10^5 cells/mouse, i.p. 30 min before, 14 days, mice about 5 weeks old, control >600 (estimated)): 219,250,281
appearance of tumor foci (dissecting microscope) ([2]; experiments 2 and 3, compared with untreated mice): smaller and more superficial
direct effect on melanoma cells ([2]; forskolin i.p. prior to tail vein injection of cells): without effecting the melanoma cells directly
overt signs of toxicity [3]: No overt signs of toxicity
potency as inhibitor of pulmonary tumor metastasis, PGI2 versus forskolin [4]: similar
increase of intracellular concentration of cyclic AMP [5]: several-fold
inhibition of human platelet aggregation [6]: blocks human platelet aggregation
LD 50 ([7]; i.p.): 105 mg/kg
LD 50 ([7]; per OS): 3,100 mg/kg

CCCCC[C@H](O)/C=C/[C@@H]1[C@H]2C/C(=C/CCCC(=O)O)O[C@H]2C[C@H]1O [PGI2, prostacyclin]
potency in inhibiting platelet aggregation in vitro relative to forskolin [8]: several hundred-fold more potent
potency as inhibitor of pulmonary tumor metastasis, PGI2 versus forskolin [4]: similar
decrease in pulmonary tumor foci ([9]; PGI2 50-200 micrograms/mouse (Honn)): greater than 50%
pulmonary tumor colonization ([9]; PGI2, i.v. injection (Honn et al. 1981)): reduces pulmonary tumor colonization

CCOC(=O)c1c(C)cc2c(CO)nnc(O)c2c1C [oxagrelate]
inhibition at 20 µM ([1]; Homo sapiens, B16-F10, oxagrelate 20 micromolar alone, read-out: inhibition of tumor cell-induced platelet aggregation): 20%
